Experimental data published in patent US20060110449A1, “Pharmaceutical composition” (priority 2004, published 2006).

Assays:
[1] = system: secretions of natural tear components; conditions: preclinical testing, reportedly; cited from earlier work
[2] = system: subjects with Seasonal Allergic Rhinitis (SAR) and Post-Nasal Drip; test: Phase II randomized, double-blind, placebo controlled study: symptom scores (post nasal drip, anterior rhinorrhea, total symptom score); conditions: for least square mean change from baseline in the average AM/PM PRIOR post nasal drip score, percent / least square mean change from baseline in the average AM/PM PRIOR post nasal drip score: 7-day Treatment Phase, Oxy 5 mg BID, combinations given concurrently BID; for least square mean change from baseline in the average AM/PM PRIOR post nasal drip score: all randomized subjects; for anterior rhinorrhea treatment difference vs. placebo: key secondary efficacy variable, BID, DL 2.5 mg, Oxy 5 mg
Text: (§1) The total target enrollment was 500 subjects with 100 per arm. The study consisted of a 7-day Treatment Phase.
The primary efficacy variable was the change from baseline in the average AM/PM PRIOR post nasal drip score over the Treatment Phase of 7 days. The analysis was based on a main effect analysis of variance (ANOVA), which extracted sources of variation due to treatment and center. […] Pairwise treatment comparisons were examined using the 95% confidence intervals of the treatment differences at an unadjusted 2-sided alpha-level of 0.05.
After the examination of post nasal drip, the key secondary efficacy variable, anterior rhinorrhea, was examined in the same manner.
There were 38 subjects excluded from the efficacy evaluable subset. A majority of these subjects were excluded due to insufficient efficacy data. Determination of evaluability was perfomed prior to unblinding the database. Though the treatment duration specified in the protocol was 7 days, about 70% of subjects also completed their diary on the AM of Day 8 since the final office visit was scheduled on that day. Therefore, the AM Day 8 data were included in the calculation of the one-week average.
The primary efficacy variable was the change from baseline in the average AM/PM PRIOR post nasal drip score over the Treatment Phase of 7 days.

[3] = system: symptoms most closely associated with chronic nasal congestion (e.g., stuffy nose); conditions: reportedly; cited from earlier work
[4] = DL 2.5 mg BID, Oxy 5 mg BID, combinations BID; 7 days
Text: as §1

O=c1ccn([C@@H]2O[C@H](COP(=O)(O)OP(=O)(O)OP(=O)(O)OP(=O)(O)OC[C@H]3O[C@@H](n4ccc(=O)[nH]c4=O)[C@H](O)[C@@H]3O)[C@@H](O)[C@H]2O)c(=O)[nH]1 [diquafosol, Diquafosol tetrasodium]
secretions of natural tear components [1]: increased

Clc1ccc2c(c1)CCc1cccnc1C2=C1CCNCC1 [DL, desloratadine]
least square mean change from baseline in the average AM/PM PRIOR post nasal drip score, percent ([2]; DL 2.5 mg BID): −24.8%
least square mean change from baseline in the average AM/PM PRIOR post nasal drip score ([2]; DL 2.5 mg BID): −0.68
total symptom score excluding post nasal drip, treatment difference vs. placebo ([2]; DL 2.5 mg BID, 7 days): 0.71 point
anterior rhinorrhea treatment difference vs. placebo ([2]; 7 days): 0.03 points

Oc1cccc(Nc2ncc(F)c(Nc3cccc(O)c3)n2)c1 [R112]
absolute difference over placebo [3]: 9%
improvement from baseline measurements (prior to drug initiation) [3]: up to 38%
relative improvement over placebo [3]: greater than 20%
symptoms most closely associated with chronic nasal congestion (e.g., stuffy nose), over placebo [3]: improved

CCN(CC)CC#CCOC(=O)C(O)(c1ccccc1)C1CCCCC1 (centres unmarked) [Oxy, Oxybutynin]
least square mean change from baseline in the average AM/PM PRIOR post nasal drip score, percent ([2]; DL 2.5 mg BID): −17.8%
least square mean change from baseline in the average AM/PM PRIOR post nasal drip score ([2]; DL 2.5 mg BID): −0.49
anterior rhinorrhea treatment difference vs. placebo ([2]; 7 days): 0.04 points
discontinuation rate from the treatment phase [4]: 5.56%
percentage of subjects reporting any treatment emergent adverse events [4]: 30.6%
percentage of subjects reporting dry mouth [4]: 13.9%
subjects reporting any treatment emergent adverse events [4]: 33 subjects
subjects reporting dry mouth [4]: 15 subjects
